Assay results as given in patent US20230011869A1 (Hoffmann-La Roche Inc., priority 2018, published 2023).
Where a name gives a salt, the structure may show the parent alone.

system: Acinetobacter baumannii ATCC17978; experiment: Antimicrobial susceptibility testing: 90% growth inhibitory concentration (IC90) determination, Iso-Sensitest broth; assay type: cell-based; settings: 90% growth inhibitory concentration, Acinetobacter baumannii ATCC17978, Iso-Sensitest broth, OD 600 nm over 16 h; read-out: ATCC17978 IC90
Summary of the method: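 A. baumannii ATCC17978 grown in Iso-Sensitest broth across 10 compound concentrations at 35±2 °C.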

| Structure (SMILES) | IC90 |
| --- | --- |
| COc1ccc(-c2cnc3c(Nc4ccc(C(=O)N5CCN(C(=O)[C@@H]6CCNC6)CC5)c(C)c4)nccn23)c(F)c1F [Example 202, (R)-(4-(4-((3-(2,3-difluoro-4-methoxyphenyl)imidazo[1,2-a]pyrazin-8-yl)amino)-2-methylbenzoyl)piperazin-1-yl) (pyrrolidin-3-yl)methanone hydrochloride] | 93 nM |
| COc1ccc(-c2cnc3c(Nc4ccc(C(=O)N5CCN(C(=O)C6CNC6)CC5)c(C)c4)nccn23)c(F)c1F [Example 203, [4-(azetidine-3-carbonyl)piperazin-1-yl]-[4-[[3-(2,3-difluoro-4-methoxy-phenyl)imidazo[1,2-a]pyrazin-8-yl]amino]-2-methyl-phenyl]methanone; hydrochloride] | 190 nM |
| COc1ccc(-c2cnc3c(Nc4ccc(C(=O)N5CCN(C(=O)C6C7CCC6CNC7)CC5)c(C)c4)nccn23)c(F)c1F (stereo not drawn) [Example 205, [4-(3-azabicyclo[3.2.1]octane-8-carbonyl)piperazin-1-yl]-[4-[[3-(2,3-difluoro-4-methoxy-phenyl)imidazo[1,2-a]pyrazin-8-yl]amino]-2-methyl-phenyl]methanone hydrochloride] | 110 nM |
| Cc1cc(Nc2nccn3c(-c4ccc(OCC#N)c(F)c4Cl)cnc23)ccc1C(=O)N1CCC(C(=O)N2CCNC[C@@H]2CO)CC1 [Example 207, 2-[3-chloro-2-fluoro-4-[8-[4-[4-[(2R)-2-(hydroxymethyl)piperazine-1-carbonyl]piperidine-1-carbonyl]-3-methyl-anilino]imidazo[1,2-a]pyrazin-3-yl]phenoxy] acetonitrile] | 170 nM |
| Cc1cc(Nc2nccn3c(-c4ccc(OCC#N)c(F)c4Cl)cnc23)ccc1C(=O)N1CCC(C(=O)N2CCNC[C@H]2CO)CC1 [Example 208, 2-[3-chloro-2-fluoro-4-[8-[4-[4-[(2S)-2-(hydroxymethyl)piperazine-1-carbonyl]piperidine-1-carbonyl]-3-methyl-anilino]imidazo[1,2-a]pyrazin-3-yl]phenoxy] acetonitrile formate] | 160 nM |
| COc1ccc(-c2cnc3c(Nc4ccc(C(=O)N5CCN(C(=O)[C@H]6CCNC6)CC5)c(C)c4)nccn23)c(Cl)c1F [Example 210, [4-[[3-(2-chloro-3-fluoro-4-methoxy-phenyl)imidazo[1,2-a]pyrazin-8-yl]amino]-2-methyl-phenyl]-[4-[(3S)-pyrrolidine-3-carbonyl]piperazin-1-yl]methanone formate] | 94 nM |
| COc1ccc(-c2cnc3c(Nc4ccc(C(=O)N5CCN(C(=O)C6(O)CCNCC6)CC5)c(C)c4)nccn23)c(Cl)c1F [Example 215, [4-[[3-(2-chloro-3-fluoro-4-methoxy-phenyl)imidazo[1,2-a]pyrazin-8-yl]amino]-2-methyl-phenyl]-[4-(4-hydroxypiperidine-4-carbonyl)piperazin-1-yl]methanone formate] | 150 nM |
| COc1ccc(-c2cnc3c(Nc4ccc(C(=O)N5CCN(C(=O)[C@@H]6CCNC[C@H]6O)CC5)c(C)c4)nccn23)c(Cl)c1F [Example 216, [4-[[3-(2-chloro-3-fluoro-4-methoxy-phenyl)imidazo[1,2-a]pyrazin-8-yl]amino]-2-methyl-phenyl]-[4-[(3S,4R)-3-hydroxypiperidine-4-carbonyl]piperazin-1-yl]methanone formate] | 190 nM |
| COc1ccc(-c2cnc3c(Nc4ccc(C(=O)N5CCN(C(=O)[C@H]6CCNC[C@H]6O)CC5)c(C)c4)nccn23)c(Cl)c1F [Example 217, [4-[[3-(2-chloro-3-fluoro-4-methoxy-phenyl)imidazo[1,2-a]pyrazin-8-yl]amino]-2-methyl-phenyl]-[4-[(3S,4S)-3-hydroxypiperidine-4-carbonyl]piperazin-1-yl]methanone] | 280 nM |
